8 compounds from US9624269B2, “Peptide inhibitors of BACE1” (GENENTECH, INC., priority 2011, dated 2017) can be followed below.

Assay [1] addresses T1, human BACE1 (rhBACE1) (Homo sapiens, UniProt P56817). The assay is described as follows: BACE1 HTRF activity assay (Bi27 substrate). To be noted: for IC50: Bi27 27-mer substrate, pH 4.4. In kind it is biochemical. Here is the method:
Briefly, a homogeneous time-resolved fluorescence (HTRF) assay can be used to measure BACE1 aspartyl protease activity with the use of an amyloid precursor protein BACE1 cleavage site peptide. For example, the Bi27 peptide (Biotin-[…] (SEQ ID NO:5), American Peptide Company)), is combined with BACE1 pre-incubated with an anti-BACE antibody in BACE reaction buffer (50 mM sodium acetate pH 4.4 and 0.1% CHAPS) in a 384-well plate (Proxiplate™, Perkin-Elmer). The proteolytic reaction mixture is incubated at ambient temperature for 75 minutes and is quenched by the addition of 5 μL HTRF detection mixture containing 2 nM Streptavidin-D2 and 150 nM of an anti-amyloid beta antibody labeled with Europium cryptate in detection buffer (200 mM Tris pH 8.0, 20 mM EDTA, 0.1% BSA, and 0.8M KF). The final reaction mixture is incubated at ambient temperature for 60 minutes and the TR-FRET signal is measured using an EnVision Multilabel Plate Reader™ (Perkin-Elmer) at an excitation wavelength of 320 nm and emission wavelengths of 615 and 665 nm.
BACE1 HTRF Activity Assay.
The BACE1 HTRF reaction was initiated by the addition of 2 μl of 600 nM Bi27 (Biotin-[…] (SEQ ID NO: 5), American Peptide Company) to 6 μl of 2.7 nM rhBACE1 pre-incubated with peptides or small molecule inhibitors in BACE1 reaction buffer (50 mM NaOAc pH 4.4 and 0.1% CHAPS) in a 384-well Proxiplate (Perkin Elmer). The 8 μl proteolytic reaction mixture was incubated at ambient temperature for 24 h and was quenched by the addition of 8 μl HTRF detection mixture containing 150 nM Streptavidin-D2 and 5 nM 6E10 labeled with Europium cryptate in detection buffer (200 mM Tris pH 8.0, 20 mM EDTA, 0.1% BSA, and 0.8 M KF). The final reaction mixture was incubated at room temperature for 60 min and the TR-FRET signal was measured on the EnVision Multilabel Plate Reader (Perkin Elmer) (excitation at 320 nm, emission at 615 and 665 nm). The data was analyzed using GraphPad Prism 5 (La Jolla, Calif.).
Target sequence in this assay (P56817 46-501): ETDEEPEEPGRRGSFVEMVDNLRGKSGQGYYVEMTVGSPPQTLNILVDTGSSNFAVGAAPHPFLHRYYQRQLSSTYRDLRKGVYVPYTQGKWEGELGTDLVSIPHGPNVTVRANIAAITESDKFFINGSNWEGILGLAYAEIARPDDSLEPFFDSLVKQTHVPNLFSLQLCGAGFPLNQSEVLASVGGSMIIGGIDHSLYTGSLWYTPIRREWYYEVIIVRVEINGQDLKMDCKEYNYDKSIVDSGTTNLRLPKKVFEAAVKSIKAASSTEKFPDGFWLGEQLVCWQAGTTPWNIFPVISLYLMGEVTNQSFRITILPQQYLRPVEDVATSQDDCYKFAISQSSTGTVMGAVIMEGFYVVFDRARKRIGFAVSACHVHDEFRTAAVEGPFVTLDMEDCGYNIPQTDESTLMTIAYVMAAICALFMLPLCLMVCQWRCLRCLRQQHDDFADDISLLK

The target in a further assay is BACE1 (Homo sapiens, UniProt P56817). The assay can be described thus: Phage ELISA of peptide-displaying phage on plate-immobilized BACE1. Type of assay: binding. To be noted: 70 nM BMS1 peptide. Here is the method: BMS1, BMS2 and BMS4 are the same as peptide identifiers 1, 2 and 4, respectively as previously described (Kornacker, M. G. et al. (2005) Biochemistry 44: 11567-73). […] FIG. 1C depicts the competition of peptide-displaying phage bound to BACE1 with synthesized peptide BMS1. The bars represent phage ELISA signal in the absence (gray) or presence (black) of 70 nM BMS1 peptide. The phage peptide ID is as denoted in FIG. 1A.
BACE1, sequence (P56817 46-501): as above
BACE017 is a BACE1 binding peptide ligand obtained from the solution panning of BACE1 against the naïve peptide library in the presence of 100 μM BACE010. BACE018-BACE021 are peptide sequences for BACE1 binding peptides derived from the affinity maturation of BACE017. The phage spot ELISA data is listed to indicate the relative binding affinity for individual clones. The column labeled with ELISA is the phage-binding signal to BACE1, s/n ratio represents the signal/noise ratio, in which “signal” is the data as shown in column “ELISA” and noise is the phage-binding signal to BSA as background nonspecific binding. […]
After 4 rounds of binding selection, individual phage clones were analyzed in a high-throughput spot phage ELISA (Sidhu, S. S. et al. (2000) Methods Enzymol 328: 333-63) using plate-immobilized BACE1 as the target. The binding signal of the same phage particle to BSA was detected as non-specific binding noise. […]
Background: ELISA stands for enzyme-linked immunosorbent assay.

In assay [2] the target is T1, human BACE1 (rhBACE1). The assay is described as follows: BACE1 fluorescence polarization (FP) competition binding assay with 5-TAMRA-BACE020 probe. To be noted: for IC50: competition with 3 nM 5-TAMRA-BACE020, 12 nM rhBACE1, pH 4.4. How it is done:
BACE1 Fluorescence Polarization Competition Binding Assay.
BACE1 binding assays were carried out in a final volume of 10 μL per well in black 384-well microplates (Proxiplate-Plus; Perkin Elmer, Waltham, Mass.). A standard binding reaction, initiated by the addition of 5 μL 2× enzyme to 2.5 μL of 4× binding probe and […] of 4× inhibitor, contained 12 nM rhBACE1, 3 nM 5-TAMRA-[…] (SEQ ID NO: 16) (5-TAMRA-BACE020), 50 mM NaOAc, pH 4.4 with 0.1% CHAPS. The reaction was permitted to proceed towards equilibrium for 2 h at ambient temperature prior to fluorescence polarization measurement using Envision (Perkin Elmer). The parallel and perpendicular fluorescent emissions measured in each well at 595 nm (excitation 531 nm polarized light) were used to determine the milli-polarization level (mP) using the following formula: mP=1000*(S-G*P)/(S+G*P) where S=parallel emission, P=perpendicular emission and G=0.65. The mP value in each well was plotted as a function of inhibitor concentration and the 50% inhibition (IC50) values were determined using a nonlinear least squares fit of the data to a four parameter equation using Prism 5.0 software (GraphPad Software, San Diego, Calif.). 5-TAMRA-labeled BACE020 was purchased from American Peptide Company, Inc (Sunnyvale, Calif.) and solubilized in DMSO to 100 mM for storage.
The affinities of BACE1 peptide ligands were measured using the abovementioned competition binding FP assay for determining IC50 values with serially diluted peptides. A Caliper assay was used to measure the inhibition of BACE1 enzymatic activity by peptide ligands. […] Furthermore, the IC50 values measured by the Caliper assay for peptides BACE017-021 and BACE025-028 are consistent with those measured by the HTRF assay.
Target sequence in this assay (P56817 46-501): as above
On the technique in general: In fluorescence polarisation assays a small probe gives low polarisation when free and higher when bound to something large.

Assay [3] concerns the target T1, human BACE1 (rhBACE1). The assay is described as follows: Caliper BACE1 activity assay (microfluidic capillary electrophoresis). In kind it is biochemical. As to conditions: for IC50: 12 nM rhBACE1, 1 μM FAM-substrate, pH 4.4. Further details: containing human BACE1 (extracellular domain). Here is the method:
An MCE assay reactions can be carried out in a standard enzymatic reaction, initiated by the addition of substrate to enzyme and 4× compound, containing human BACE1 (extracellular domain), amyloid precursor protein beta secretase active site peptide (FAM-[…]-CONH2 (SEQ ID NO: 20)), 50 mM NaOAc pH 4.4 and 0.1% CHAPS. After incubation for 60 minutes at ambient temperature, the product and substrate in each reaction is separated using a 12-sipper microfluidic chip analyzed on an LC3000® (both, Caliper Life Sciences). The separation of product and substrate is optimized by choosing voltages and pressure using the manufacturer's optimization software. Substrate conversion is calculated from the electrophoregram using HTS Well Analyzer software (Caliper Life Sciences).
BACE1, BACE2 and Cathepsin D Activity Assay Using Microfluidic Capillary Electrophoresis (MCE).
BACE1, BACE2, and Cathepsin D reactions were carried out in a final volume of 20 μl per well in a 384-well microplate using a Caliper LabChip 3000 (Hopkinton, Mass.). A standard enzymatic reaction, initiated by the addition of 10 μ12× substrate to 5 μl of 4× enzyme and 5 μl of 4× peptide or small molecule inhibitor, contained 12 nM rhBACE1, 1 μM FAM-[…]-amide (SEQ ID NO: 20), 50 mM NaOAc, pH 4.4, 0.1% CHAPS. The same reaction conditions were used for rhBACE2 (5 nM) and Cathepsin D (6 nM) (Cat. No. 219394; EMD Biosciences, San Diego, Calif.). After incubation for 60 min at room temperature, the product and substrate in each reaction were separated using a 12-sipper microfluidic chip. Separation of product and substrate was optimized by choosing voltages and pressure using the Caliper Optimizer software. The separation buffer contained 100 mM HEPES, pH 7.2, 0.015% Brij-35, 0.1% Coating Reagent #3, 10 mM EDTA and 5% DMSO. The separation conditions used a downstream voltage of −500 V, an upstream voltage of −2250 V, and a screening pressure of −1.2 psi. The product and substrate fluorescence was excited at 488 nm and detected at 530 nm. Substrate conversion was calculated from the electrophoregram using the Caliper HTS Well Analyzer software.
Target sequence in this assay (P56817 46-457 limits assumed): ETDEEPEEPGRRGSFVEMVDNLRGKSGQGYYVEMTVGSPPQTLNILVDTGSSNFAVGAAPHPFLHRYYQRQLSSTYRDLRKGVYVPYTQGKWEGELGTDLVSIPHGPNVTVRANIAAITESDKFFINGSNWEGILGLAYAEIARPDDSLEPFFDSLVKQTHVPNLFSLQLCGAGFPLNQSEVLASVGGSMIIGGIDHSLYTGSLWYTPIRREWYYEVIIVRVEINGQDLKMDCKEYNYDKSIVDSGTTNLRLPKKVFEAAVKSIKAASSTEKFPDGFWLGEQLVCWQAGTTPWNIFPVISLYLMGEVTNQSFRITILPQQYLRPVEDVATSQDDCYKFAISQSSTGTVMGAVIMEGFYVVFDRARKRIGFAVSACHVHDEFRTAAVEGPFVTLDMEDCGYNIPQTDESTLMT

Assay [4] deals with Aβ1-40 production in 293-hAPP cells. The assay is described as follows: Aβ1-40 assay in 293-hAPP cells. In kind it is cell-based, human. To be noted: 293-HEK cells stably transfected with APP, 24 h. How it is done:
Aβ1-40 Assay in 293-hAPP Cells.
Aβ1-40 production was measured in 293-HEK cells stably expressing wild-type human APP(695) complementary DNA (cDNA) (293-hAPP). Cells were seeded overnight at 3×10^4 cells per well in a 96-well plate. Fresh media [Dulbecco's modified Eagle's medium (DMEM)+10% fetal bovine serum (FBS)] containing various inhibitors were incubated with the 293-hAPP cells for 24 h. The cellular medium was harvested and assayed for the presence of Aβ1-40 with an Aβ1-40 HTRF assay (CisBio) according to the manufacturer's instructions. Aβ1-40 values were normalized for cell viability, as determined with the CellTiter-Glo Luminescent Cell Viability Assay (Promega). Experiments were performed at least 3 times, and each point in each experiment was repeated in duplicate. Data was plotted with a 4-parameter nonlinear regression curve-fitting program (KaleidaGraph, Synergy Software).

Positions of bridges follow the written chain, without caps; N, C: chain ends. Residues, ends and D or L forms follow the SMILES beside them.

As for “BACE011: Ac-SGCLDYPCFVPIS-NH2 (disulfide 3-8 (inferred))”, the “Effect on BACE1 activity in HTRF enzyme activity assay (in words)” value (“Effect on BACE1 activity” below) with human BACE1 (rhBACE1) [1] was “activator”. In addition, the “Binding of phage-displayed peptide to BACE1 in competition with peptide BMS1” value with BACE1 was “competitive”.

As a reminder, the IC50 is the concentration that gives 50% inhibition. High values mean a need for much substance, low ones inhibition by little substance. As to `CSCC[C@@H]1NC(=O)[C@H](CC(C)C)NC(=O)[C@H](CCCNC(=N)N)NC(=O)[C@@H](NC(=O)[C@H](Cc2ccc(O)cc2)NC(=O)[C@@H]2CCCN2C(=O)[C@H](CO)NC(=O)[C@H](CC(C)C)NC(=O)[C@H](CCC(=O)O)NC(=O)[C@H](CC(N)=O)NC(C)=O)CSSC[C@@H](C(=O)N[C@@H](CC(=O)O)C(N)=O)NC(=O)CNC(=O)[C@H](CC(C)C)NC(=O)CNC1=O` [BACE019] (Ac-NELSPYCRLMGLGCD-NH2; disulfide 7-14), the IC50 at human BACE1 (rhBACE1) [1] was 10 nM; at human BACE1 (rhBACE1) [2] it was 10 ± 3 nM.

Turning to `CC[C@H](C)[C@H](NC(=O)[C@H](Cc1c[nH]cn1)NC(=O)[C@H](CCC(=O)O)NC(=O)[C@H](CCC(=O)O)NC(=O)[C@H](CC(N)=O)NC(C)=O)C(=O)N[C@@H](Cc1ccc(O)cc1)C(=O)N[C@H]1CSSC[C@@H](C(=O)NCC(N)=O)NC(=O)CNC(=O)[C@H](CC(C)C)NC(=O)CNC(=O)[C@H](CC(C)C)NC(=O)[C@H](CC(C)C)NC(=O)[C@H](CCCNC(=N)N)NC1=O` [BACE017] (Ac-NEEHIYCRLLGLGCG-NH2; disulfide 7-14), the half-inhibitory concentration (IC50) was > 10000 nM at human BACE1 (rhBACE1) [3], 438 nM against human BACE1 (rhBACE1) [1] and > 10000 nM at human BACE1 (rhBACE1) [2].

For Ac-NEESMYSRLLGIGSG-NH2 [BACE027], the concentration for half-maximal inhibition (IC50) against human BACE1 (rhBACE1) [3] and at human BACE1 (rhBACE1) [2] was > 10000 nM in each case. The “Inhibition of Aβ production in cells (in words)” value (from here on “Inhibition of Aβ production”) in assay [4] is on record as “no inhibition”.

In the case of `CC[C@H](C)[C@@H]1NC(=O)CNC(=O)[C@H](CC(C)C)NC(=O)[C@H](CC(C)C)NC(=O)[C@H](CCCNC(=N)N)NC(=O)[C@@H](NC(=O)[C@H](Cc2ccc(O)cc2)NC(=O)[C@H](CCSC)NC(=O)[C@H](CO)NC(=O)[C@H](CCC(=O)O)NC(=O)[C@H](CCC(=O)O)NC(=O)[C@H](CC(N)=O)NC(C)=O)CSSC[C@@H](C(=O)NCC(N)=O)NC(=O)CNC1=O` [BACE020] (Ac-NEESMYCRLLGIGCG-NH2; disulfide 7-14), the results for the 50% inhibitory concentration (IC50) at human BACE1 (rhBACE1) [3], against human BACE1 (rhBACE1) [1] and at human BACE1 (rhBACE1) [2] were 11 ± 3 nM, 12 nM and 11 ± 2 nM, respectively. Also, the “Effect on BACE1 activity” value on human BACE1 (rhBACE1) [1] is “best inhibitory activity”. For the same compound, the “Inhibition of Aβ production” value in assay [4] is recorded as “potent inhibitor”.

With Ac-SGPYFIEYMSAV-NH2 [BACE010], the “Effect on BACE1 activity” value at human BACE1 (rhBACE1) [1] is listed as “very weak inhibitor”. Also, the “Binding of phage-displayed peptide to BACE1 in competition with peptide BMS1” value on BACE1 is recorded as “competitive”. The 50% inhibitory concentration (IC50) on human BACE1 (rhBACE1) [2] was > 10000 nM.

For the compound OM99-2 [reference compound], the “Inhibition of Aβ production” value in assay [4] is “not all enzymatic inhibitors showed cellular activity”.

Regarding `CC[C@H](C)[C@@H]1NC(=O)CNC(=O)[C@H](CC(C)C)NC(=O)[C@H](CC(C)C)NC(=O)[C@H](CCCNC(=N)N)NC(=O)[C@@H](NC(=O)[C@H](Cc2ccc(O)cc2)NC(=O)[C@H](CCSC)NC(=O)[C@H](CO)NC(C)=O)CSSC[C@@H](C(=O)NCC(N)=O)NC(=O)CNC1=O` [BACE031] (Ac-SMYCRLLGIGCG-NH2; disulfide 4-11), at human BACE1 (rhBACE1) [3] (Caliper activity assay), the “weakening of inhibitory activity relative to BACE020” value was 3-4 fold. Besides, the “weakening of affinity relative to BACE020” value on human BACE1 (rhBACE1) [2] (FP binding assay) is reported as 3-4 fold.
